The record followed here is US10618901B2 (GlaxoSmithKline Intellectual Property Development Limited, priority 2014, dated 2020).

SMILES strings stand for the structures.

The assay concerns the target T1, LRRK2 Ser935 phosphorylation in SH-SY5Y cells over-expressing recombinant full length LRRK2 (Homo sapiens, UniProt Q5S007).
T1 construct: A BacMam virus expressing full length recombinant LRRK2 was purchased from Invitrogen; host or cells: SH-SY5Y (BacMam transduction)
Put plainly: Recombinant cellular LRRK2 AlphaScreen assay. The conditions noted are these: read-out: pIC50 in the recombinant cellular LRRK2 alphaScreen assay (converted). In kind it is cell-based. The text has this: Recombinant Cellular LRRK2 AlphaScreen Assay
To determine the activity of compounds against LRRK2 kinase activity in cells, the observed LRRK2 kinase-dependent modulation of LRRK2 Ser 935 phosphorylation (Dzamko et al., 2010, Biochem. J. 430: 405-413) was utilized to develop a quantitative 384 well plate-based immunoassay of LRRK2 Ser935 phosphorylation in the human neuroblastoma cell line SH-SY5Y, engineered to over-express recombinant full length LRRK2 protein.
A BacMam virus expressing full length recombinant LRRK2 was purchased from Invitrogen and amplified by inoculation of SF-9 cells at MOI 0.3 for 4-5 days in Sf-900 III SFM medium supplemented with 3% fetal bovine serum. Infected cell cultures were then centrifuged at 2000 g for 20 minutes, viral supernatant titer determined by anti-gp64 plaque assay and stored at 4° C.
Affinity-purified anti-phospho LRRK2 Ser935 sheep polyclonal antibody (Dzamko et al., 2010, Biochem. J. 430: 405-413) was biotinylated by standard methods (PerkinElmer). Anti-LRRK2 rabbit polyclonal antibody was purchased from Novus Biologicals. AlphaScreen Protein A IgG Kit (including acceptor and donor beads) was purchased from Perkin Elmer.
SH-SY5Y cells were grown in DMEM/F12 medium with 10% dialysed fetal bovine serum and harvested by treatment with 0.5% trypsin-EDTA for 5 minutes at 37° C. followed by centrifugation at 1000 rpm for 4 minutes. The cell pellet was resuspended in Opti-MEM reduced serum media (Invitrogen) at 200,000 cells/ml and mixed with the BacMam LRRK2 virus at M01=50. 50 μl cell solutions were then dispensed to each well of a 384-well plate and incubated at 37° C., 5% CO2 for 24 hours.
Serial dilutions of test compounds were prepared in Opti-MEM reduced serum media (Invitrogen) and 5.6 ul transferred from compound plate to cell assay plate to achieve a top final assay concentration of 10 uM. DMSO was used in certain wells as controls. Cells were incubated at 37° C., 5% CO2 for 60 minutes. The medium was then removed and cells lysed by addition of 20 ul cell lysis buffer (Cell Signaling Technology) and incubation at 4° C. for 20 minutes. 10 ul of antibody/acceptor bead mix [(1/1000 biotinylated-pS935 LRRK2 antibody, 1/1000 total-LRRK2 antibody, 1/100 Acceptor beads in AlphaScreen detection buffer (25 mM Hepes (pH 7.4), 0.5% Triton X-100, 1 mg/ml Dextran 500 and 0.1% BSA)] was then added to each well and plates incubated for 2 hours at ambient temperature in the dark. 10 μl of donor beads solution (1/33.3 donor beads in AlphaScreen detection buffer) was then added to each well. Following incubation for a further 2 hours at ambient temperature in the dark, plates were read on an EnVision™ plate reader at emission 520-620 nm with excitation 680 nm. Dose response curve data was based on sigmoidal dose-response model.
Background: Alpha assays give light when donor and acceptor beads are brought close together.

T1 sequence (Q5S007 whole entry): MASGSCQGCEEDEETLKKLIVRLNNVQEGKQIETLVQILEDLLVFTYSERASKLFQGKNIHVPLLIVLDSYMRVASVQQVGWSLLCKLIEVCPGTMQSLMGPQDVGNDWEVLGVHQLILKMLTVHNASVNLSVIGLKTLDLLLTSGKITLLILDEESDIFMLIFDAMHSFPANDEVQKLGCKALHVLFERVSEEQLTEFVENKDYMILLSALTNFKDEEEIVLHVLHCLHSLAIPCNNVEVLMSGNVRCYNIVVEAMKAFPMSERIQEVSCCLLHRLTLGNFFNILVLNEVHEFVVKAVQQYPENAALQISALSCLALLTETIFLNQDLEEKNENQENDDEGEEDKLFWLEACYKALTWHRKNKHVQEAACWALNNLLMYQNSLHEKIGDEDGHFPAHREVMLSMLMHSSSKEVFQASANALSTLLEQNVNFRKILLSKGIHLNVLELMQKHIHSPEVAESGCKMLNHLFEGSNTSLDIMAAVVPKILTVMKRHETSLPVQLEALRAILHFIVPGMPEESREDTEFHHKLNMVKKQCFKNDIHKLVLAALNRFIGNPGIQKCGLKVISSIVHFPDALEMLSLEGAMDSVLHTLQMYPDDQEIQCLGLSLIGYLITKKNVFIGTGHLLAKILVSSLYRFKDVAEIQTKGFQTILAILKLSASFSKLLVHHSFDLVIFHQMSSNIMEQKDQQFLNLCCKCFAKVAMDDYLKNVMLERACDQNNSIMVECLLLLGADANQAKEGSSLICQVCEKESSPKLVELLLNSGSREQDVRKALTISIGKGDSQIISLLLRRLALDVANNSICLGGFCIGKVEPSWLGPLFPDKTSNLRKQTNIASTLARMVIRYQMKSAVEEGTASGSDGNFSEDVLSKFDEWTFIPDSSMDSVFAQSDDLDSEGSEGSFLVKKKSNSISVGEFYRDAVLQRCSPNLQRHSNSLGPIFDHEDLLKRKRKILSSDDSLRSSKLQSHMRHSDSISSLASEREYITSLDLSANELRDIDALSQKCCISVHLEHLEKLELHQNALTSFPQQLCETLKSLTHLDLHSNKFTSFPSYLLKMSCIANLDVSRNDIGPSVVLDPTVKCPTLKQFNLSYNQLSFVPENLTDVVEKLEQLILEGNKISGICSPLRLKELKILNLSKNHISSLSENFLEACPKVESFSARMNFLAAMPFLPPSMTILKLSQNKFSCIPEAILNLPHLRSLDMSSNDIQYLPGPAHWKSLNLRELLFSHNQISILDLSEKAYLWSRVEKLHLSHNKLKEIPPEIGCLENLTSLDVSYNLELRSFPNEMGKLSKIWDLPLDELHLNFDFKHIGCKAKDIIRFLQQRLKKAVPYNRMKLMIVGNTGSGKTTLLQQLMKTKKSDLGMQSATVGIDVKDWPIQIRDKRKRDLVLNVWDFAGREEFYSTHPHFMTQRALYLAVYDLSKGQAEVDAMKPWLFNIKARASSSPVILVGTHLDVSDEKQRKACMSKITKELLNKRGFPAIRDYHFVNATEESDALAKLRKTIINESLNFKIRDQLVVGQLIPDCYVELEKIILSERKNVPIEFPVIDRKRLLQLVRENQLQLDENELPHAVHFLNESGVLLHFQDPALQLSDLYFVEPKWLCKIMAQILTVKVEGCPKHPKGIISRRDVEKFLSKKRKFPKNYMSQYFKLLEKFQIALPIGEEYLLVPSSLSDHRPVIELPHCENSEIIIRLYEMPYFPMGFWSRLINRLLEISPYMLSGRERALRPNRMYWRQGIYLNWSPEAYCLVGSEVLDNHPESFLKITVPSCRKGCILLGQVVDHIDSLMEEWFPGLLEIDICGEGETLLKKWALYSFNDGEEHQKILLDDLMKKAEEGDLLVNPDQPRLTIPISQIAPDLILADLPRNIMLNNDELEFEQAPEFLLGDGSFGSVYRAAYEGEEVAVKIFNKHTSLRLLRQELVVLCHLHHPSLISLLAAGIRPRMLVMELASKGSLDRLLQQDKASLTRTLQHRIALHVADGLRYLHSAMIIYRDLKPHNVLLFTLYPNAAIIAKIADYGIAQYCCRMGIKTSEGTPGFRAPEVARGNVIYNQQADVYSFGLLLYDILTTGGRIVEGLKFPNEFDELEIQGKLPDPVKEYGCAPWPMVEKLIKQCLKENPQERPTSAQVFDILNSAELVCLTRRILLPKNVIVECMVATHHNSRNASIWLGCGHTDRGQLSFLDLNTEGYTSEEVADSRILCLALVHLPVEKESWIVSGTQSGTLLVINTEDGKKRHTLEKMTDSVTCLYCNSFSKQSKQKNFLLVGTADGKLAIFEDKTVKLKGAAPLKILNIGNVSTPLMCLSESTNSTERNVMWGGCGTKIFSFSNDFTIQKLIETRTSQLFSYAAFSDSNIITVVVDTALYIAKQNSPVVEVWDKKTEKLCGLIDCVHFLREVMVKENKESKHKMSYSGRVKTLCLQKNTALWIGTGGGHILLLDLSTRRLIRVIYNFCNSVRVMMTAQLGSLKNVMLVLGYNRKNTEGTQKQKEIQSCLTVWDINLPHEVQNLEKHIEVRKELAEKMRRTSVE

In the case of `CCOc1nc(Nc2cnn(C3CNCCO3)c2Cl)nc2[nH]ccc12` (single isomer, unassigned) [Example E143, N-(5-chloro-1-(morpholin-2-yl)-1H-pyrazol-4-yl)-4-ethoxy-7H-pyrrolo[2,3-d]pyrimidin-2-amine], the IC50 is no more than 100 nM.

For the compound `CCOc1nc(Nc2cnn(C3CC(N4CCOCC4)CCC3(F)F)c2Cl)nc2[nH]ccc12` (single isomer, unassigned) [Example E148, trans-N-(5-chloro-1-(2,2-difluoro-5-morpholinocyclohexyl)-1H-pyrazol-4-yl)-4-ethoxy-7H-pyrrolo[2,3-d]pyrimidin-2-amine], the IC50 is no more than 100 nM.

`CCOc1nc(Nc2cn(C)nc2C)nc2[nH]ccc12` [Example E1, N-(1,3-dimethyl-1H-pyrazol-4-yl)-4-ethoxy-7H-pyrrolo[2,3-d]pyrimidin-2-amine]: the IC50 is no more than 100 nM.

With `CCOc1nc(Nc2cnn(C)c2Cl)nc2[nH]ccc12` [Example E4, N-(5-chloro-1-methyl-1H-pyrazol-4-yl)-4-ethoxy-7H-pyrrolo-[2,3-d]-pyrimidin-2-amine], the IC50 was no more than 100 nM.

Turning to `CCOc1nc(Nc2cn(CCOC)nc2C)nc2[nH]ccc12` [Example E8, 4-ethoxy-N-(1-(2-methoxyethyl)-3-methyl-1H-pyrazol-4-yl)-7H-pyrrolo-[2,3-d]-pyrimidin-2-amine], the IC50 was no more than 100 nM.

Take `CCOc1nc(Nc2cnn(CCOC)c2C)nc2[nH]ccc12` [Example E9, 4-ethoxy-N-(1-(2-methoxyethyl)-5-methyl-1H-pyrazol-4-yl)-7H-pyrrolo-[2,3-d]pyrimidin-2-amine]: the IC50 was no more than 100 nM.

As to `CCOc1nc(Nc2cnn(CCN3CC4CC4C3)c2C)nc2[nH]ccc12` (stereo not drawn) [Example E10, N-(1-(2-(3-aza-bicyclo-[3.1.0]hexan-3-yl)ethyl)-5-methyl-1H-pyrazol-4-yl)-4-ethoxy-7H-pyrrolo-[2,3-d]pyrimidin-2-amine], the IC50 is no more than 100 nM.

Regarding `CCOc1nc(Nc2cnn(C3CCOCC3)c2C)nc2[nH]ccc12` [Example E11, 4-ethoxy-N-(5-methyl-1-(tetrahydro-2H-pyran-4-yl)-1H-pyrazol-4-yl)-7H-pyrrolo-[2,3-d]-pyrimidin-2-amine], the IC50 was no more than 100 nM.

As for `CCOc1nc(Nc2cnn(CC(C)(C)O)c2Cl)nc2[nH]ccc12` [Example E15, 1-(5-chloro-4-((4-ethoxy-7H-pyrrolo-[2,3-d]pyrimidin-2-yl)amino)-1H-pyrazol-1-yl)-2-methylpropan-2-ol], the IC50 was no more than 100 nM.

Regarding `CCOc1nc(Nc2cnn(C3CCN(C)CC3)c2C)nc2[nH]ccc12` [Example E18, 4-ethoxy-N-(5-methyl-1-(1-methylpiperidin-4-yl)-1H-pyrazol-4-yl)-7H-pyrrolo-[2,3-d]-pyrimidin-2-amine], the IC50 is no more than 100 nM.

Turning to `CCOc1nc(Nc2cnn(C3CCOCC3)c2Cl)nc2[nH]ccc12` [Example E22, N-(5-chloro-1-(tetrahydro-2H-pyran-4-yl)-1H-pyrazol-4-yl)-4-ethoxy-7H-pyrrolo-[2,3-d]-pyrimidin-2-amine], the IC50 is no more than 100 nM.

Take `CCOc1nc(Nc2cnn(CCF)c2C)nc2[nH]ccc12` [Example E26, 4-ethoxy-N-(1-(2-fluoroethyl)-5-methyl-1H-pyrazol-4-yl)-7H-pyrrolo-[2,3-d]-pyrimidin-2-amine]: the IC50 was no more than 100 nM.

As for `CCOc1nc(Nc2cn(CCF)nc2C)nc2[nH]ccc12` [Example E27, 4-ethoxy-N-(1-(2-fluoroethyl)-3-methyl-1H-pyrazol-4-yl)-7H-pyrrolo-[2,3-d]-pyrimidin-2-amine], the IC50 was no more than 100 nM.

As to `CCOc1nc(Nc2cnn(CC3COC3)c2Cl)nc2[nH]ccc12` [Example E28, N-(5-chloro-1-(oxetan-3-yl-methyl)-1H-pyrazol-4-yl)-4-ethoxy-7H-pyrrolo-[2,3-d]pyrimidin-2-amine], the IC50 was no more than 100 nM.

`CCOc1nc(Nc2cnn(CC3COC3)c2C)nc2[nH]ccc12` [Example E29, 4-ethoxy-N-(5-methyl-1-(oxetan-3-yl-methyl)-1H-pyrazol-4-yl)-7H-pyrrolo-[2,3-d]pyrimidin-2-amine]: the IC50 is no more than 100 nM.
